# From patent US10906873B2, “Substituted cyclic amides as herbicides” (FMC Corporation, priority 2015, dated 2021)
# Columns and labels:
# Type in all cases: in vivo
# [1] = test system: ducksalad (Heteranthera limosa); experiment: Test B flooded paddy test, ducksalad; conditions: Flood, 250 g ai/ha; scale of 0 to 100 where 0 is no effect and 100 is complete control; 13 to 15 d
# Experimental: (§1) Plant species in the flooded paddy test selected from rice (Oryza sativa), sedge, umbrella (small-flower umbrella sedge, Cyperus difformis), ducksalad (Heteranthera limosa), and barnyardgrass (Echinochloa crus-galli) were grown to the 2-leaf stage for testing. At time of treatment, test pots were flooded to 3 cm above the soil surface, treated by application of test compounds directly to the paddy water, and then maintained at that water depth for the duration of the test. Treated plants and controls were maintained in a greenhouse for 13 to 15 d, after which time all species were compared to controls and visually evaluated. Plant response ratings, summarized in Table B, are based on a scale of 0 to 100 where 0 is no effect and 100 is complete control. A dash (-) response means no test result.
# [2] = test system: wheat (Triticum aestivum); experiment: Test A postemergence, wheat; conditions: 0 to 100 scale
# Excerpt: (§2) Seeds of plant species selected from barnyardgrass (Echinochloa crus-galli), crabgrass (large crabgrass, Digitaria sanguinalis), kochia (Kochia scoparia), ragweed (common ragweed, Ambrosia elatior), morningglory (Ipomoea spp.), velvetleaf (Abutilon theophrasti), ryegrass, It. (Italian ryegrass, Lolium multiflorum), foxtail, giant (giant foxtail, Setaria faberii), wheat (Triticum aestivum), corn (Zea mays), and pigweed (Amaranthus retroflexus), were planted into a blend of loam soil and sand and treated preemergence with a directed soil spray using test chemicals formulated in a non-phytotoxic solvent mixture which included a surfactant. At the same time, plants selected from these crop and weed species and also blackgrass (Alopecurus myosuroides), and galium (catchweed bedstraw, Galium aparine), were planted in pots containing the same blend of loam soil and sand and treated with postemergence applications of test chemicals formulated in the same manner. Plants ranged in height from 2 to 10 cm and were in the one- to two-leaf stage for the postemergence treatment. Treated plants and untreated controls were maintained in a greenhouse for approximately 10 d, after which time all treated plants were compared to untreated controls and visually evaluated for injury. Plant response ratings, summarized in Table A, are based on a 0 to 100 scale where 0 is no effect and 100 is complete control. A dash (-) response means no test result.
# [3] = test system: foxtail, giant (giant foxtail, Setaria faberii); experiment: Test A preemergence, foxtail, giant; conditions: 0 to 100 scale
# Excerpt: as §2
# [4] = test system: barnyardgrass (Echinochloa crus-galli); experiment: Test A postemergence, barnyardgrass; conditions: 0 to 100 scale
# Excerpt: as §2
# [5] = test system: barnyardgrass (Echinochloa crus-galli); experiment: Test B flooded paddy test, barnyardgrass; conditions: Flood, 250 g ai/ha; scale of 0 to 100 where 0 is no effect and 100 is complete control; 13 to 15 d
# Experimental: as §1
# [6] = test system: blackgrass (Alopecurus myosuroides); experiment: Test A postemergence, blackgrass; conditions: 0 to 100 scale
# Excerpt: as §2
# [7] = test system: sedge, umbrella (small-flower umbrella sedge, Cyperus difformis); experiment: Test B flooded paddy test, sedge, umbrella; conditions: Flood, 250 g ai/ha; scale of 0 to 100 where 0 is no effect and 100 is complete control; 13 to 15 d
# Experimental: as §1
# [8] = test system: ryegrass, It. (Italian ryegrass, Lolium multiflorum); experiment: Test A preemergence, ryegrass, It.; conditions: 0 to 100 scale
# Excerpt: as §2
# [9] = test system: foxtail, giant (giant foxtail, Setaria faberii); experiment: Test A postemergence, foxtail, giant; conditions: 0 to 100 scale
# Excerpt: as §2
# [10] = test system: corn (Zea mays); experiment: Test A postemergence, corn; conditions: 0 to 100 scale
# Excerpt: as §2
# [11] = test system: kochia (Kochia scoparia); experiment: Test A postemergence, kochia; conditions: 0 to 100 scale
# Excerpt: as §2
# [12] = test system: pigweed (Amaranthus retroflexus); experiment: Test A postemergence, pigweed; conditions: 0 to 100 scale
# Excerpt: as §2
# [13] = test system: ragweed (common ragweed, Ambrosia elatior); experiment: Test A preemergence, ragweed; conditions: 0 to 100 scale
# Excerpt: as §2
# [14] = test system: rice (Oryza sativa); experiment: Test B flooded paddy test, rice; conditions: Flood, 250 g ai/ha; scale of 0 to 100 where 0 is no effect and 100 is complete control; 13 to 15 d
# Experimental: as §1
# [15] = test system: galium (catchweed bedstraw, Galium aparine); experiment: Test A postemergence, galium; conditions: 0 to 100 scale
# Excerpt: as §2
# [16] = test system: ryegrass, It. (Italian ryegrass, Lolium multiflorum); experiment: Test A postemergence, ryegrass, It.; conditions: 0 to 100 scale
# Excerpt: as §2
# [17] = test system: kochia (Kochia scoparia); experiment: Test A preemergence, kochia; conditions: 0 to 100 scale
# Excerpt: as §2
# [18] = test system: barnyardgrass (Echinochloa crus-galli); experiment: Test A preemergence, barnyardgrass; conditions: 0 to 100 scale
# Excerpt: as §2
# [19] = test system: pigweed (Amaranthus retroflexus); experiment: Test A preemergence, pigweed; conditions: 0 to 100 scale
# Excerpt: as §2
# [20] = test system: ragweed (common ragweed, Ambrosia elatior); experiment: Test A postemergence, ragweed; conditions: 0 to 100 scale
# Excerpt: as §2
compound,measurement,setting,value
O=C1NCC(C#Cc2cccc(Cl)c2)C1C(=O)Nc1ccccc1F (centres unmarked) [Compound 29],"Plant response rating, Ducksalad",[1],75
same,"Plant response rating, Wheat",[2]; 125 g ai/ha,0
same,"Plant response rating, Wheat",[2]; 500 g ai/ha,0
same,"Plant response rating, Foxtail, Giant",[3]; 125 g ai/ha,0
same,"Plant response rating, Foxtail, Giant",[3]; 500 g ai/ha,60
same,"Plant response rating, Barnyardgrass",[4]; 125 g ai/ha,0
same,"Plant response rating, Barnyardgrass",[4]; 500 g ai/ha,60
same,"Plant response rating, Barnyardgrass",[5],0
same,"Plant response rating, Blackgrass",[6]; 125 g ai/ha,0
same,"Plant response rating, Blackgrass",[6]; 500 g ai/ha,0
same,"Plant response rating, Sedge, Umbrella",[7],0
same,"Plant response rating, Ryegrass, It.",[8]; 125 g ai/ha,0
same,"Plant response rating, Ryegrass, It.",[8]; 500 g ai/ha,0
same,"Plant response rating, Foxtail, Giant",[9]; 125 g ai/ha,0
same,"Plant response rating, Foxtail, Giant",[9]; 500 g ai/ha,60
same,"Plant response rating, Corn",[10]; 125 g ai/ha,0
same,"Plant response rating, Corn",[10]; 500 g ai/ha,0
same,"Plant response rating, Kochia",[11]; 125 g ai/ha,0
same,"Plant response rating, Kochia",[11]; 500 g ai/ha,0
same,"Plant response rating, Pigweed",[12]; 125 g ai/ha,0
same,"Plant response rating, Pigweed",[12]; 500 g ai/ha,0
same,"Plant response rating, Ragweed",[13]; 125 g ai/ha,0
same,"Plant response rating, Ragweed",[13]; 500 g ai/ha,0
same,"Plant response rating, Rice",[14],0
same,"Plant response rating, Galium",[15]; 125 g ai/ha,0
same,"Plant response rating, Galium",[15]; 500 g ai/ha,0
same,"Plant response rating, Ryegrass, It.",[16]; 125 g ai/ha,0
same,"Plant response rating, Ryegrass, It.",[16]; 500 g ai/ha,0
same,"Plant response rating, Kochia",[17]; 125 g ai/ha,0
same,"Plant response rating, Kochia",[17]; 500 g ai/ha,0
same,"Plant response rating, Barnyardgrass",[18]; 125 g ai/ha,30
same,"Plant response rating, Barnyardgrass",[18]; 500 g ai/ha,70
same,"Plant response rating, Pigweed",[19]; 125 g ai/ha,0
same,"Plant response rating, Pigweed",[19]; 500 g ai/ha,0
same,"Plant response rating, Ragweed",[20]; 125 g ai/ha,0
same,"Plant response rating, Ragweed",[20]; 500 g ai/ha,0
O=C1NCC(/C=C/c2cccc(F)c2)C1C(=O)Nc1ccccc1F (centres unmarked) [Compound 24],"Plant response rating, Ducksalad",[1],90
same,"Plant response rating, Wheat",[2]; 125 g ai/ha,0
same,"Plant response rating, Wheat",[2]; 500 g ai/ha,0
same,"Plant response rating, Foxtail, Giant",[3]; 125 g ai/ha,60
same,"Plant response rating, Foxtail, Giant",[3]; 500 g ai/ha,90
same,"Plant response rating, Barnyardgrass",[4]; 125 g ai/ha,0
same,"Plant response rating, Barnyardgrass",[4]; 500 g ai/ha,70
same,"Plant response rating, Barnyardgrass",[5],70
same,"Plant response rating, Blackgrass",[6]; 125 g ai/ha,0
same,"Plant response rating, Blackgrass",[6]; 500 g ai/ha,0
same,"Plant response rating, Sedge, Umbrella",[7],0
same,"Plant response rating, Ryegrass, It.",[8]; 125 g ai/ha,0
same,"Plant response rating, Ryegrass, It.",[8]; 500 g ai/ha,0
same,"Plant response rating, Foxtail, Giant",[9]; 125 g ai/ha,30
same,"Plant response rating, Foxtail, Giant",[9]; 500 g ai/ha,80
same,"Plant response rating, Corn",[10]; 125 g ai/ha,0
same,"Plant response rating, Corn",[10]; 500 g ai/ha,0
same,"Plant response rating, Pigweed",[12]; 125 g ai/ha,0
same,"Plant response rating, Pigweed",[12]; 500 g ai/ha,0
same,"Plant response rating, Ragweed",[13]; 125 g ai/ha,0
same,"Plant response rating, Ragweed",[13]; 500 g ai/ha,30
same,"Plant response rating, Rice",[14],0
same,"Plant response rating, Galium",[15]; 125 g ai/ha,0
same,"Plant response rating, Galium",[15]; 500 g ai/ha,0
same,"Plant response rating, Ryegrass, It.",[16]; 125 g ai/ha,0
same,"Plant response rating, Ryegrass, It.",[16]; 500 g ai/ha,0
same,"Plant response rating, Kochia",[17]; 125 g ai/ha,0
same,"Plant response rating, Kochia",[17]; 500 g ai/ha,20
same,"Plant response rating, Barnyardgrass",[18]; 125 g ai/ha,30
same,"Plant response rating, Barnyardgrass",[18]; 500 g ai/ha,70
same,"Plant response rating, Pigweed",[19]; 125 g ai/ha,0
same,"Plant response rating, Pigweed",[19]; 500 g ai/ha,0
same,"Plant response rating, Ragweed",[20]; 125 g ai/ha,0
same,"Plant response rating, Ragweed",[20]; 500 g ai/ha,0
O=C1NCC(/C=C/c2ccc(F)cc2)C1C(=O)Nc1ccccc1F (centres unmarked) [Compound 27],"Plant response rating, Ducksalad",[1],80
same,"Plant response rating, Wheat",[2]; 125 g ai/ha,0
same,"Plant response rating, Wheat",[2]; 500 g ai/ha,0
same,"Plant response rating, Foxtail, Giant",[3]; 125 g ai/ha,0
same,"Plant response rating, Foxtail, Giant",[3]; 500 g ai/ha,60
same,"Plant response rating, Barnyardgrass",[4]; 125 g ai/ha,0
same,"Plant response rating, Barnyardgrass",[4]; 500 g ai/ha,60
same,"Plant response rating, Barnyardgrass",[5],0
same,"Plant response rating, Blackgrass",[6]; 125 g ai/ha,0
same,"Plant response rating, Blackgrass",[6]; 500 g ai/ha,0
same,"Plant response rating, Sedge, Umbrella",[7],0
same,"Plant response rating, Ryegrass, It.",[8]; 125 g ai/ha,0
same,"Plant response rating, Ryegrass, It.",[8]; 500 g ai/ha,20
same,"Plant response rating, Foxtail, Giant",[9]; 125 g ai/ha,0
same,"Plant response rating, Foxtail, Giant",[9]; 500 g ai/ha,70
same,"Plant response rating, Corn",[10]; 125 g ai/ha,0
same,"Plant response rating, Corn",[10]; 500 g ai/ha,0
same,"Plant response rating, Pigweed",[12]; 125 g ai/ha,0
same,"Plant response rating, Pigweed",[12]; 500 g ai/ha,20
same,"Plant response rating, Ragweed",[13]; 125 g ai/ha,0
same,"Plant response rating, Ragweed",[13]; 500 g ai/ha,30
same,"Plant response rating, Rice",[14],0
same,"Plant response rating, Galium",[15]; 125 g ai/ha,0
same,"Plant response rating, Galium",[15]; 500 g ai/ha,0
same,"Plant response rating, Ryegrass, It.",[16]; 125 g ai/ha,0
same,"Plant response rating, Ryegrass, It.",[16]; 500 g ai/ha,0
same,"Plant response rating, Kochia",[17]; 125 g ai/ha,0
same,"Plant response rating, Kochia",[17]; 500 g ai/ha,40
same,"Plant response rating, Barnyardgrass",[18]; 125 g ai/ha,0
same,"Plant response rating, Barnyardgrass",[18]; 500 g ai/ha,50
same,"Plant response rating, Pigweed",[19]; 125 g ai/ha,0
same,"Plant response rating, Pigweed",[19]; 500 g ai/ha,0
same,"Plant response rating, Ragweed",[20]; 125 g ai/ha,0
same,"Plant response rating, Ragweed",[20]; 500 g ai/ha,0
